The values below come from PMC6637260 (2019).

Assay [1] deals with F21T (DNA, G4) GGGTTAGGGTTAGGGTTAGGG
In words: FRET melting. The following applies: 100 mM KCl; 10 mM lithium cacodylate pH 7.2; 1 µM TPE-Im, 200 nM F21T (5:1).

The subject of assay [2] is Tel22 (DNA, G4) AGGGTTAGGGTTAGGGTTAGGG
Nature of the assay: ITC. Conditions: 10 mM Tris, 1 mM EDTA, pH 7.4, 20 °C.

In assay [3] the test system is ds43 (DNA, duplex) CGTCACGTAAATCGGTTAACAAATGGCTTTCGAAGCTAGCTTC/GAAGCTAGCTTCGAAAGCCATTTGTTAACCGATTTACGTGACG
In words: FRET melting competition. The following applies: 100 mM KCl; 10 mM lithium cacodylate pH 7.2; 10 equivalents ds43 lower F21T ΔT1/2 from 19.5 to 7 °C.

In turn, `C[n+]1ccn(-c2ccc(C(=C(c3ccc(-n4cc[n+](C)c4)cc3)c3ccc(-n4cc[n+](C)c4)cc3)c3ccc(-n4cc[n+](C)c4)cc3)cc2)c1` came in with a ΔT1/2 in assay [1] of 19.5 °C. The Ka in assay [2] (100 mM KCl) was 2.4 (±1.0).10^5 M^-1; in assay [2] (100 mM NaCl), 3.2 (±1.1).10^5 M^-1. In addition, the binding result in assay [3] is listed as “weak”.
